Experimental data published in the supplement of paper PMC11061612.

What was measured:
RVH-421 (Melanoma) [1] = test: combination Emax (second highest fraction inhibited in the dose matrix, 72 h); higher = more inhibition; extreme values may be limits of the assay
Method in brief: (§1)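 Cell lines in DMEM/F12 or RPMI with 10% FBS were plated in 1536-well plates, held 24 hours at 37°C, 5% CO2, then given two-drug dose matrices for 72 hours (DMSO typically 0.2%). Viability was read by CellTiter-Glo 2.0 luminescence and scaled as inhibition from 0 (vehicle wells) to 1 (blank wells). Combination Emax is the second-highest inhibition in the matrix; Bliss excess is observed combination effect minus expected EA + EB − EA·EB, EA and EB being single-agent effects.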

A375 (Melanoma) = test: Bliss excess, mean over the matrix (fraction); higher = more synergy
Method in brief: as §1

[2] = tested on: NCI-H1435 (Non-Small Cell Lung Carcinoma); test: as above
Method in brief: as §1

DK-MG (Glioblastoma) = test: as above
Method in brief: as §1

[3] = tested on: NCI-H2009 (Lung Adenocarcinoma); test: as above
Method in brief: as §1

[4] = tested on: JJN-3 (Plasma Cell Myeloma); test: as above
Method in brief: as §1

C32 (Melanoma) = test: as above
Method in brief: as §1

[5] = tested on: HT-1197 (Bladder Carcinoma); test: as above
Method in brief: as §1

[6] = tested on: COR-L105 (Lung Adenocarcinoma); test: as above
Method in brief: as §1

RVH-421 (Melanoma) [7] = test: as above
Method in brief: as §1

GCIY (Gastric Carcinoma) = test: as above
Method in brief: as §1

[8] = tested on: SNU-1 (Gastric Carcinoma); test: as above
Method in brief: as §1

[9] = tested on: HT-3 (Cervical Carcinoma); test: as above
Method in brief: as §1

[10] = tested on: TK (B-Cell Non-Hodgkin's Lymphoma); test: as above
Method in brief: as §1

[11] = tested on: C2BBe1 (Colorectal Carcinoma); test: as above
Method in brief: as §1

[12] = tested on: MDA-MB-175-VII (Breast Carcinoma); test: as above
Method in brief: as §1

[13] = tested on: OCI-M1 (Acute Myeloid Leukemia); test: as above
Method in brief: as §1

SK-MEL-24 (Melanoma) = test: as above
Method in brief: as §1

M14 (Melanoma) [14] = test: combination Emax (second highest fraction inhibited in the dose matrix, 72 h); higher = more inhibition; extreme values may be limits of the assay
Method in brief: as §1

M14 (Melanoma) [15] = test: Bliss excess, mean over the matrix (fraction); higher = more synergy
Method in brief: as §1
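Wherever Bliss excess, mean over the matrix is given: after 72 h of two-drug dosing.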

Compound | combination Emax (RVH-421 (Melanoma) [1]) | Bliss excess (A375 (Melanoma)) | Bliss excess [2] | Bliss excess (DK-MG (Glioblastoma)) | Bliss excess [3] | Bliss excess [4] | Bliss excess (C32 (Melanoma)) | Bliss excess [5] | Bliss excess [6] | Bliss excess (RVH-421 (Melanoma) [7]) | Bliss excess (GCIY (Gastric Carcinoma)) | Bliss excess [8] | Bliss excess [9] | Bliss excess [10] | Bliss excess [11] | Bliss excess [12] | Bliss excess [13] | Bliss excess (SK-MEL-24 (Melanoma)) | combination Emax (M14 (Melanoma) [14]) | Bliss excess (M14 (Melanoma) [15])
CN(CCO)CC[C@H](CSc1ccccc1)Nc1ccc(S(=O)(=O)NC(=O)c2ccc(N3CCC([C@@H](O)c4ccccc4-c4ccc(Cl)cc4)CC3)cc2)cc1S(=O)(=O)C(F)(F)F [AZD4320] + C[C@@H](Nc1cc(F)cc(F)c1)c1cc(C(=O)N(C)C)cc2c(=O)cc(N3CCOCC3)oc12 [AZD8186] (first compound max 1 µM, 7x7, partner max 3 µM) | 0.464 | 0 | 0.131 | -0.0164 | -0.0035 | 0.0409 | -0.0046 | 0.0598 | -0.0279 | 0.0798 | 0.0022 | -0.0024 | 0.0383 | 0.0312 | 0.0231 | 0.0271 | 0.0278 | -0.0354 | – | –
Cc1cc2ncnn2cc1Nc1ncc2c(n1)n(C1CCOCC1)c(=O)n2C [AZD7648] + C=CCn1c(=O)c2cnc(Nc3ccc(N4CCN(C)CC4)cc3)nc2n1-c1cccc(C(C)(C)O)n1 [AZD1775] (first compound max 10 µM, partner max 1 µM) | 0.289 | 0.0217 | 0.0816 | 0.0398 | -0.0271 | -0.0726 | 0.0106 | -0.0553 | -0.0431 | 0.0039 | -0.028 | -0.0572 | 0.0055 | -0.0568 | -0.0115 | -0.0282 | -0.044 | -0.015 | – | –
Cc1cc2ncnn2cc1Nc1ncc2c(n1)n(C1CCOCC1)c(=O)n2C [AZD7648] + CCN(CCO)CCCOc1ccc2c(Nc3cc(CC(=O)Nc4cccc(F)c4)[nH]n3)ncnc2c1 [AZD2811] (first compound max 10 µM, 7x7, partner max 1 µM) | 0.299 | 0.0251 | 0.0409 | 0.0189 | 0.0669 | 0.0202 | 0.0271 | -0.0131 | -0.0508 | -0.0193 | 0.0949 | 0.0214 | 0.0276 | 0.0132 | 0.0124 | -0.0042 | 0.0449 | -0.0121 | – | –
CN(CCO)CC[C@H](CSc1ccccc1)Nc1ccc(S(=O)(=O)NC(=O)c2ccc(N3CCC([C@@H](O)c4ccccc4-c4ccc(Cl)cc4)CC3)cc2)cc1S(=O)(=O)C(F)(F)F [AZD4320] + Cc1cc2ncnn2cc1Nc1ncc2c(n1)n(C1CCOCC1)c(=O)n2C [AZD7648] (first compound max 1 µM, 7x7, partner max 10 µM) | 0.211 | -0.0312 | 0.0137 | -0.0591 | -0.0437 | 0.0461 | -0.0275 | -0.0497 | -0.0146 | -0.0345 | -0.0452 | 0.0237 | -0.0403 | -0.0018 | -0.0403 | -0.0145 | 0.0138 | -0.0429 | – | –
Cc1cc2ncnn2cc1Nc1ncc2c(n1)n(C1CCOCC1)c(=O)n2C [AZD7648] + O=C(c1cc(Cc2n[nH]c(=O)c3ccccc23)ccc1F)N1CCN(C(=O)C2CC2)CC1 [Olaparib] (first compound max 10 µM, 7x7, partner max 10 µM) | 0.0825 | -0.0339 | -0.0366 | -0.0126 | -0.0372 | -0.008 | -0.0375 | 0.0045 | -0.034 | -0.0684 | -0.0554 | 0.0384 | -0.0518 | 0.0001 | -0.0402 | -0.0525 | -0.0248 | -0.0533 | – | –
COc1cc2c(cc1OCCCCCOc1cc3c(cc1OC)C(=O)N1C=C(C)C[C@H]1C=N3)N=C[C@@H]1CC(C)=CN1C2=O [SG3199] + O=C(c1cc(Cc2n[nH]c(=O)c3ccccc23)ccc1F)N1CCN(C(=O)C2CC2)CC1 [Olaparib] (first compound max 0.001 µM, 7x7, partner max 10 µM) | 0.0596 | -0.0304 | -0.0584 | -0.0446 | -0.0297 | 0.0128 | -0.0373 | -0.028 | -0.0371 | -0.0773 | -0.0152 | 0.0755 | -0.0306 | -0.0114 | -0.0188 | -0.0489 | -0.0065 | -0.0576 | – | –
C=CCn1c(=O)c2cnc(Nc3ccc(N4CCN(C)CC4)cc3)nc2n1-c1cccc(C(C)(C)O)n1 [AZD1775] + C1CN(CCC1(C(=O)N[C@@H](CCO)C2=CC=C(C=C2)Cl)N)C3=NC=NC4=C3C=CN4 [Capivasertib] (first compound max 3 µM, partner max 3 µM) | – | – | 0.0011 | -0.0023 | -0.0011 | -0.0417 | -0.0772 | -0.0488 | -0.0627 | – | -0.0277 | 0.0488 | -0.0073 | 0.0183 | -0.077 | 0.0171 | 0.0245 | 0.0047 | 0.766 | 0.0065
